Values of other authors in patent US6635271B1, “Method for increasing the concentration of conjugated linoleic acid in milk and/or tissue fat of a ruminant” (Valio Oy, priority 1997, dated 2003).

Settings: vaccenic acid fed to mice (Santora et al. 1998)

**Q.** With `CCCCCC/C=C\CCCCCCCCCC(=O)O` [vaccenic acid, trans-11 isomer of octadecenoic acid] as the molecule, how does the “tissue fat CLA concentration” value read?
**A.** Its value is “tripled”.
